# Columns and labels:
# HES = assay: Concentration required to inhibit HMG-CoA reductase by 50% was determined in HES 9 cell line; type: functional, cell-based; settings: Homo sapiens
# [1] = target: T1, 3-hydroxy-3-methylglutaryl-coenzyme A reductase (Homo sapiens, UniProt P04035); assay: Concentration required to inhibit HMG-CoA reductase by 50% was determined in Hep G2 cell line; type: functional, cell-based, HepG2
# T1 sequence (P04035 whole entry): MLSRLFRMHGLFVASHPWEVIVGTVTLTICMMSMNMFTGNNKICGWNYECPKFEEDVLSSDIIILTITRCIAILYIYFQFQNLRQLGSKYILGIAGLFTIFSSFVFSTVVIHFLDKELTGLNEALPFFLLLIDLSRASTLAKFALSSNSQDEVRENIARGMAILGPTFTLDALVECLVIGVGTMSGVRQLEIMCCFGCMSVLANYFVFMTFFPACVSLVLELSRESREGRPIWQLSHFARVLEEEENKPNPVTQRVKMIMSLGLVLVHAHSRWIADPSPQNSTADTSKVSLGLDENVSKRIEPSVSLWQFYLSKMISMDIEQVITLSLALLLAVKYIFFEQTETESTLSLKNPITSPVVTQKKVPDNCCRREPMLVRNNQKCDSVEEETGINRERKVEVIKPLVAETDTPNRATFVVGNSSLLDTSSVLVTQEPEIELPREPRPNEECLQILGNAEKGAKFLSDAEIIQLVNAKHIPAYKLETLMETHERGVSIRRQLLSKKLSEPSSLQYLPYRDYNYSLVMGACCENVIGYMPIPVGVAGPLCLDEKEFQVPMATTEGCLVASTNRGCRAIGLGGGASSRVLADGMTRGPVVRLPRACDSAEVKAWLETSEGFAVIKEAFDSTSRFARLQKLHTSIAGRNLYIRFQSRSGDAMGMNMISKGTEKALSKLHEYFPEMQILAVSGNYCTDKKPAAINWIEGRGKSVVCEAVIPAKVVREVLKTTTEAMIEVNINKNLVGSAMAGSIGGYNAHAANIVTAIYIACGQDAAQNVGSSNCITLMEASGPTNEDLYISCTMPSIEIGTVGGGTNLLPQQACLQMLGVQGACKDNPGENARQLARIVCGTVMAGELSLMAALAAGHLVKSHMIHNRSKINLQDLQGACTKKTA
# [2] = target: T2, 3-hydroxy-3-methylglutaryl-coenzyme A reductase (Rattus norvegicus, UniProt P51639); assay: Inhibitory activity against HMG-CoA reductase from rat liver microsomal preparation
# T2 sequence (P51639 whole entry): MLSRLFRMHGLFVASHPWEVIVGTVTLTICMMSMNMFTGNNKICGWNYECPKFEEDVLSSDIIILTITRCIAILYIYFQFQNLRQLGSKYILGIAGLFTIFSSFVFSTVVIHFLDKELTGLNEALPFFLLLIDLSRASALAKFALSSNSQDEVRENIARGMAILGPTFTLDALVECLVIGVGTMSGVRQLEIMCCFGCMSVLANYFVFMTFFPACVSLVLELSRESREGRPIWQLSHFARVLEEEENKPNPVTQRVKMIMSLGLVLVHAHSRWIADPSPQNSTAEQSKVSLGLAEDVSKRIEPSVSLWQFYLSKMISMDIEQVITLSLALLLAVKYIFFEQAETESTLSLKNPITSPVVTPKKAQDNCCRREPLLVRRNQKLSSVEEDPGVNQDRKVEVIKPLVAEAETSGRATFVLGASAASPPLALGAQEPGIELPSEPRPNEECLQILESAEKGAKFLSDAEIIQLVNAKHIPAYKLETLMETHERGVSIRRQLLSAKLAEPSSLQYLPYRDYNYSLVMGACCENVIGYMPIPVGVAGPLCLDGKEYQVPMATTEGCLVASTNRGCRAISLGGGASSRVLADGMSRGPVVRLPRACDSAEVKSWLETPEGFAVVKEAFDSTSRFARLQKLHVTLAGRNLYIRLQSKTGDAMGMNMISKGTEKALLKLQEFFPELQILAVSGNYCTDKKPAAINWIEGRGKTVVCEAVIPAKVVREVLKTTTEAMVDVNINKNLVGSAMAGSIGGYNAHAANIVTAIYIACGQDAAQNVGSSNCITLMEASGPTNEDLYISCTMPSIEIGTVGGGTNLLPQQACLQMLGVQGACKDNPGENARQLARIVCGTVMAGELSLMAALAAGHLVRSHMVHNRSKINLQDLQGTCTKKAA
IC50 (HES),IC50 [1],IC50 [2],SMILES
7000 nM,1400 nM,,CC[C@H](C)C(=O)O[C@H]1C[C@H](O)C[C@@H]2C=C[C@H](C)[C@H](CCC3C[C@@H](O)CC(=O)O3)[C@@H]12 (stereo not given in full)
7280 nM,2220 nM,14 nM,CC[C@H](C)C(=O)O[C@H]1C[C@H](O)C[C@@H]2C=C[C@H](C)[C@H](CC[C@H](O)C[C@H](O)CC(=O)O)[C@@H]12
17 nM,29 nM,,CC[C@H](C)C(=O)O[C@H]1C[C@@H](C)C=C2C=C[C@H](C)[C@H](CC[C@@H](O)C[C@@H](O)CC(=O)O)[C@H]21
13 nM,,,CC[C@H](C)C(=O)O[C@H]1C[C@@H](C)C=C2C=C[C@H](C)[C@H](CC[C@@H]3C[C@@H](O)CC(=O)O3)[C@H]21 [LOVASTATIN]
6.5 nM,12 nM,,CCC(C)(C)C(=O)O[C@H]1C[C@@H](C)C=C2C=C[C@H](C)[C@H](CC[C@@H](O)C[C@@H](O)CC(=O)O)[C@H]21
